Laboratory results: patent publication US20240083857A1, “2-Methyl-Quinazolines” (Bayer Pharma Aktiengesellschaft, priority 2017, published 2024)
Like-named read-outs stand apart in the source and are kept apart here.

Legend:
[1] = target: K-Ras^G12C : hSOS1 interaction (Homo sapiens, UniProt Q07889); assay: Biochemical assay 1: K-Ras^G12C interaction assay with hSOS1 (HTRF); format: binding; conditions: read-out: Assay 1 (KRAS-SOS Interaction) activity expressed as IC50
[2] = target: Epidermal Growth Factor Receptor (EGFR) (Homo sapiens (Human), UniProt P00533); assay: EGFR kinase assay (TR-FRET); format: biochemical; conditions: read-out: EGFR kinase inhibition IC50
Procedure, shortened: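 EGFR purified from A431 cells was preincubated with compound 15 min at 22° C in pH 7.0 Hepes buffer with MgCl2, MnCl2 and vanadate before reaction with a biotinylated peptide. After EDTA stop, phosphopeptide was detected by TR-FRET (anti-phosphotyrosine Tb-cryptate, streptavidin-XL665) as the 665/620 nm emission ratio.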

Epidermal Growth Factor Receptor (EGFR), sequence (P00533 25-1210): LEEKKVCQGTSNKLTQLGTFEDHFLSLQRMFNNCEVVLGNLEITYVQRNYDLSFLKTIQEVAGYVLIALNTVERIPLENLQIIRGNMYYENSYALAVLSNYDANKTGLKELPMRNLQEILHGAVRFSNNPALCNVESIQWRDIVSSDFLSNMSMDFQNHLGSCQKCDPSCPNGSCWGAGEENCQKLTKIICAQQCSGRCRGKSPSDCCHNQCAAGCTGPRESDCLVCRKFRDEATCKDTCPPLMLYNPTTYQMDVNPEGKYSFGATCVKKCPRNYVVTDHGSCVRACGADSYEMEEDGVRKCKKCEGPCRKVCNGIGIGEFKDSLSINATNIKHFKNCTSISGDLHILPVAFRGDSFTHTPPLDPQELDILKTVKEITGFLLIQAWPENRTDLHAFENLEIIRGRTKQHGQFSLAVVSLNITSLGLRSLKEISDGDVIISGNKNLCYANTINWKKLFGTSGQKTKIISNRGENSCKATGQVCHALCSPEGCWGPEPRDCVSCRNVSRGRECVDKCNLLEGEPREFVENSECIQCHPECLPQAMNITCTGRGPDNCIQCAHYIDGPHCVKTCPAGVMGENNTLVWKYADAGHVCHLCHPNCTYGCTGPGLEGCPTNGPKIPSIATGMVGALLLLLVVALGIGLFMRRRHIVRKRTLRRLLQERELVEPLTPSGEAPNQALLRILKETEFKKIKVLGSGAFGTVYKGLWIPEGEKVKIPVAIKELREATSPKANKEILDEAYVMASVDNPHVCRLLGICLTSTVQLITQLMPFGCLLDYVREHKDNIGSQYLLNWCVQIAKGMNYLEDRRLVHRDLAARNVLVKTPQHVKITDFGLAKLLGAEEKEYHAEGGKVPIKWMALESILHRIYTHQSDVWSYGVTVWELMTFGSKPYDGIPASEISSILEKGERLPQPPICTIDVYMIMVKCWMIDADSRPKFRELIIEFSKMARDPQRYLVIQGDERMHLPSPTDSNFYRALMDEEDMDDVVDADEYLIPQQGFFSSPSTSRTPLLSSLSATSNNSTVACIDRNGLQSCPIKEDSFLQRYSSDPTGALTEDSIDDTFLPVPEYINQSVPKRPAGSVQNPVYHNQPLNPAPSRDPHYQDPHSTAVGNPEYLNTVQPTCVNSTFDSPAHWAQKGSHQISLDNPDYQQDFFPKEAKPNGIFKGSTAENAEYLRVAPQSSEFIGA

| SMILES | IC50 [1] [µM] | IC50 ([2]; values given in μM) [µM] | IC50 ([2]; unit inferred) [µM] |
| --- | --- | --- | --- |
| COc1cc2nc(C)nc(N[C@H](C)c3ccc(-c4ccccc4CCN)s3)c2cc1OC (stereo in doubt) [Example 357, N-[1-{5-[2-(2-aminoethyl)phenyl]thiophen-2-yl}ethyl]-6,7-dimethoxy-2-methylquinazolin-4-amine] | 0.0512 | > 20 |  |
| COc1cc2nc(C)nc(NC(C)c3ccc(-c4ccccc4[C@@H](C)NC(=O)OC(C)(C)C)s3)c2cc1OC (stereo in doubt) [Example 358, tert-butyl {1-[2-(5-{1-[(6,7-dimethoxy-2-methylquinazolin-4-yl)amino]ethyl}thiophen-2-yl)phenyl]ethyl}carbamate] | 1.44 | > 20 |  |
| COc1cc2nc(C)nc(NC(C)c3ccc(-c4ccccc4[C@@H](C)N)s3)c2cc1OC (stereo in doubt) [Example 359, N-[1-(5-{2-[1-aminoethyl]phenyl}thiophen-2-yl)ethyl]-6,7-dimethoxy-2-methylquinazolin-4-amine] | 0.234 | > 20 |  |
| COc1cc2nc(C)nc(NC(C)c3ccc(-c4ccccc4[C@H](C)N)s3)c2cc1OC (stereo in doubt) [Example 360, N-[1-(5-{2-[1-aminoethyl]phenyl}thiophen-2-yl)ethyl]-6,7-dimethoxy-2-methylquinazolin-4-amine] | 0.195 | > 20 |  |
| COc1cc2nc(C)nc(NC(C)c3cccc4c3CCO4)c2cc1OC (stereo not drawn) [Example 22, N-[1-(2,3-dihydro-1-benzofuran-4-yl)ethyl]-6,7-dimethoxy-2-methylquinazolin-4-amine] | 0.177 | > 20 |  |
| COc1cc2nc(C)nc(NC(C)c3ccc4c(c3)OCO4)c2cc1OC (stereo not drawn) [Example 23, N-[1-(1,3-benzodioxol-5-yl)ethyl]-6,7-dimethoxy-2-methylquinazolin-4-amine] | 2.72 | > 20 |  |
| COc1cc2nc(C)nc(NC(C)c3ccc4c(c3)CCO4)c2cc1OC (stereo not drawn) [Example 24, N-[1-(2,3-dihydro-1-benzofuran-5-yl)ethyl]-6,7-dimethoxy-2-methylquinazolin-4-amine] | 0.701 | > 20 |  |
| COc1cc2nc(C)nc(NC(C)c3ccc4c(c3)CCCC4)c2cc1OC (stereo not drawn) [Example 25, 6,7-dimethoxy-2-methyl-N-[1-(5,6,7,8-tetrahydronaphthalen-2-yl)ethyl]quinazolin-4-amine] | 0.541 | > 20 |  |
| COc1cc2nc(C)nc(NC(C)c3c(C)nc4ccccn34)c2cc1OC (stereo not drawn) [Example 26, 6,7-dimethoxy-2-methyl-N-[1-(2-methylimidazo[1,2-a]pyridin-3-yl)ethyl]quinazolin-4-amine] | 9.55 | > 20 |  |
| COc1cc2nc(C)nc(NC(C)c3csc4ccccc34)c2cc1OC (stereo not drawn) [Example 27, N-[1-(1-benzothiophen-3-yl)ethyl]-6,7-dimethoxy-2-methylquinazolin-4-amine] | 0.368 | > 20 |  |
| Cc1nc(N[C@H](C)c2ccccc2)c2cc(N=S(C)(C)=O)ccc2n1 [Example 30, 6-{[dimethyl(oxido)-lambda6-sulfanylidene]amino}-2-methyl-N-[(1R)-1-phenylethyl]quinazolin-4-amine] | 1.34 | > 20 |  |
| Cc1nc(N[C@H](C)c2ccc(F)cc2)c2cc(N=S(C)(C)=O)ccc2n1 [Example 32, 6-{[dimethyl(oxido)-lambda6-sulfanylidene]amino}-N-[(1R)-1-(4-fluorophenyl)ethyl]-2-methylquinazolin-4-amine] | 1.07 | > 20 |  |
| COc1cc2nc(C)nc(NC(C)c3ccc4c(c3)NC(=O)CO4)c2cc1OC (stereo not drawn) [Example 34, 6-{1-[(6,7-dimethoxy-2-methylquinazolin-4-yl)amino]ethyl}-2H-1,4-benzoxazin-3(4H)-one] | 4.23 | > 20 |  |
| COc1ccc2cc(C(C)Nc3nc(C)nc4cc(OC)c(OC)cc34)ccc2c1 (stereo not drawn) [Example 35, 6,7-dimethoxy-N-[1-(6-methoxy-2-naphthyl)ethyl]-2-methylquinazolin-4-amine] | 4.72 | > 20 |  |
| COc1cc2nc(C)nc(N[C@H](C)c3cccc(-c4ccc(O)nc4)c3)c2cc1OC [Example 68, 5-(3-{(1R)-1-[(6,7-dimethoxy-2-methylquinazolin-4-yl)amino]ethyl}phenyl)pyridin-2-ol] | 0.137 |  | 6.92 |
| COc1cc2nc(C)nc(N[C@H](C)c3cccc(-n4cccn4)c3)c2cc1OC [Example 341, 6,7-dimethoxy-2-methyl-N-{(1R)-1-[3-(1H-pyrazol-1-yl)phenyl]ethyl}quinazolin-4-amine] | 2.83 | > 20 |  |
| COc1cc2nc(C)nc(N[C@H](C)c3cccc(Br)c3)c2cc1OCc1ccccc1 [Example 343, 6-(benzyloxy)-N-[(1R)-1-(3-bromophenyl)ethyl]-7-methoxy-2-methylquinazolin-4-amine] | 1.68 | > 20 |  |

| SMILES | IC50 [1] [µM] | IC50 ([2]; values given in μM) [µM] | IC50 ([2]; unit inferred) [µM] |
| --- | --- | --- | --- |
| COc1cc2nc(C)nc(N[C@H](C)c3cccc(-c4cn[nH]c4)c3)c2cc1OCc1ccccc1 [Example 344, 6-(benzyloxy)-7-methoxy-2-methyl-N-{(1R)-1-[3-(1H-pyrazol-4-yl)phenyl]ethyl}-quinazolin-4-amine] | 0.931 | > 20 |  |
| COc1cc2nc(C)nc(N[C@H](C)c3cccc(-c4cn[nH]c4)c3)c2cc1O [Example 345, 7-methoxy-2-methyl-4-({(1R)-1-[3-(1H-pyrazol-4-yl)phenyl]ethyl}amino)quinazolin-6-ol] | 14.6 | > 20 |  |
| COc1cc2nc(C)nc(N[C@H](C)c3cccc(-c4cn[nH]c4)c3)c2cc1OCC1CC1 [Example 346, 6-(cyclopropylmethoxy)-7-methoxy-2-methyl-N-{(1R)-1-[3-(1H-pyrazol-4-yl)phenyl]ethyl}quinazolin-4-amine] | 0.342 | > 20 |  |
| COCCOc1cc2c(N[C@H](C)c3cccc(-c4cn[nH]c4)c3)nc(C)nc2cc1OC [Example 348, 7-methoxy-6-(2-methoxyethoxy)-2-methyl-N-{(1R)-1-[3-(1H-pyrazol-4-yl)phenyl]-ethyl}quinazolin-4-amine] | 0.693 | > 20 |  |
| CC[C@@H](O)c1ccccc1-c1ccc(C(C)Nc2nc(C)nc3cc(OC)c(OC)cc23)s1 (stereo partly drawn) [Example 349, (1R)-1-[2-(5-{1-[(6,7-dimethoxy-2-methylquinazolin-4-yl)amino]ethyl}thiophen-2-yl)phenyl]propan-1-ol] | 0.231 | > 20 |  |
| CCCCOc1cc2c(N[C@H](C)c3cccc(-c4cn[nH]c4)c3)nc(C)nc2cc1OC [Example 350, 6-butoxy-7-methoxy-2-methyl-N-{(1R)-1-[3-(1H-pyrazol-4-yl)phenyl]ethyl}quinazolin-4-amine] | 0.688 | > 20 |  |
| COc1cc2nc(C)nc(N[C@H](C)c3cccc(-c4cn[nH]c4)c3)c2cc1OCCC(C)C [Example 351, 7-methoxy-2-methyl-6-(3-methylbutoxy)-N-{(1R)-1-[3-(1H-pyrazol-4-yl)phenyl]ethyl}quinazolin-4-amine] | 1.71 | > 20 |  |
| COc1cc2nc(C)nc(NC(C)c3ccc(-c4ccccc4CCNC(=O)OC(C)(C)C)s3)c2cc1OC (stereo not drawn) [Example 352, tert-butyl {2-[2-(5-{1-[(6,7-dimethoxy-2-methylquinazolin-4-yl)amino]ethyl}thiophen-2-yl)phenyl]ethyl}carbamate] | 16 | > 20 |  |
| COc1cc2nc(C)nc(N[C@H](C)c3cccc(-c4cn[nH]c4)c3)c2cc1OC(C)C [Example 353, 7-methoxy-2-methyl-6-(propan-2-yloxy)-N-{(1R)-1-[3-(1H-pyrazol-4-yl)phenyl]ethyl}quinazolin-4-amine] | 0.36 | > 20 |  |
| COc1cc2nc(C)nc(N[C@H](C)c3cccc(-c4cn[nH]c4)c3)c2cc1OCC1COC1 [Example 354, 7-methoxy-2-methyl-6-(oxetan-3-ylmethoxy)-N-{(1R)-1-[3-(1H-pyrazol-4-yl)phenyl]ethyl}quinazolin-4-amine] | 0.313 | > 20 |  |
| CCOc1cc2c(N[C@H](C)c3cccc(-c4cn[nH]c4)c3)nc(C)nc2cc1OC [Example 355, 6-Ethoxy-7-methoxy-2-methyl-N-{(1R)-1-[3-(1H-pyrazol-4-yl)phenyl]ethyl}-quinazolin-4-amine] | 0.485 | > 20 |  |
| CCOc1cc2c(N[C@H](C)c3cccc(-c4cnn(CC)c4)c3)nc(C)nc2cc1OC [Example 356, 6-ethoxy-N-{(1R)-1-[3-(1-ethyl-1H-pyrazol-4-yl)phenyl]ethyl}-7-methoxy-2-methylquinazolin-4-amine] | 0.655 | > 20 |  |
| COc1cc2nc(C)nc(NC(C)c3ccc(-c4ccccc4-c4cn[nH]c4)s3)c2cc1OC (stereo not drawn) [Example 361, 6,7-dimethoxy-2-methyl-N-[1-{5-[2-(1H-pyrazol-4-yl)phenyl]thiophen-2-yl}ethyl]-quinazolin-4-amine] | 2.46 | > 20 |  |
| Cc1nc(N[C@H](C)c2cccc(Cl)c2)c2cc(Br)ccc2n1 [Example 363, 6-bromo-N-[(1R)-1-(3-chlorophenyl)ethyl]-2-methylquinazolin-4-amine] | 12.4 | > 20 |  |
| COc1cc2nc(C)nc(NC(C)c3ccc(-c4ccccc4CNC4CCCC4)s3)c2cc1OC (stereo not drawn) [Example 364, N-[1-(5-{2-[(cyclopentylamino)methyl]phenyl}thiophen-2-yl)ethyl]-6,7-dimethoxy-2-methylquinazolin-4-amine] | 0.129 | > 20 |  |
| COc1cc2nc(C)nc(NC(C)c3ccc(-c4ccccc4CNCc4ccccc4)s3)c2cc1OC (stereo not drawn) [Example 365, N-[1-(5-{2-[(benzylamino)methyl]phenyl}thiophen-2-yl)ethyl]-6,7-dimethoxy-2-methylquinazolin-4-amine] | 0.469 | > 20 |  |
